Results from US20230339970A1, “CASEIN KINASE 1 DELTA MODULATORS” (priority 2020, published 2023).

Legend:
human CSNK1D = target: T1, human CSNK1D (Homo sapiens, UniProt P48730); assay: Whole Cell nBRET CSNK1D Binding Assay; details: living CHO cells stably expressing human CSNK1D tagged with nanoluciferase; NanoBret tracer 130 nM; 2 hours at 37 C
T1 construct: expressed in transfected cells

[1] = target: T2, human recombinant GST cleaved CSNK1D (Homo sapiens, UniProt P48730); assay: Purified Enzyme Assay (ADP-Glo CSNK1D Kinase Assay); assay type: biochemical; details: 2 nM CSNK1D; peptide substrate 150 μM; ATP 20 μM; 45 minutes at room temperature
T2 construct: GST (cleaved yes); purchased University of Dundee clone DU 19064
T2 sequence (P48730 whole entry): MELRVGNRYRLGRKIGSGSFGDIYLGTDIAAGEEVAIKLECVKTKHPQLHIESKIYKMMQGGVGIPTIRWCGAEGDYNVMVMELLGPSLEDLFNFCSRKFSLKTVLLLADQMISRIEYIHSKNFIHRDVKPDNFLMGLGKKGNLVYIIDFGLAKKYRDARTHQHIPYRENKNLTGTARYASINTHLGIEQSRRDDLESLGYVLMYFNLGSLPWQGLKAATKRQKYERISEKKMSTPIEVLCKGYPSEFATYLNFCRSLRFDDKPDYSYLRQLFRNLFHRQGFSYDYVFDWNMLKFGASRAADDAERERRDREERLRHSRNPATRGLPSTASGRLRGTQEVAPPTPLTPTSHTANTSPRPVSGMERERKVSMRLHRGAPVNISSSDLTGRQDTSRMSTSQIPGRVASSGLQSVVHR
How it was run: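 Percent activity derived from ADP-Glo quantification of ADP produced. Reactions: compound dose-response with human recombinant GST-cleaved CSNK1D, ATP and substrate peptide PLSRTL-pS-VASLPGL, incubated 45 min at room temperature.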

T1 sequence (P48730 whole entry): as above

IC50 (human CSNK1D) [nM]	IC50 [1] [nM]	Compound
924	40	Fc1ccc(-c2nn3c(c2-c2ccnc4[nH]ncc24)CC(F)(F)CC3)nc1 [Example 48, 4-[5,5-Difluoro-2-(5-fluoro-2-pyridyl)-6,7-dihydro-4H-pyrazolo[1,5-a]pyridin-3-yl]-1H-pyrazolo[3,4-b]pyridine]
32	2	CC1(C)Cc2c(-c3ccnc4[nH]ncc34)c(-c3ccc(F)cn3)nn2C1 [Example 234, 4-[2-(5-Fluoro-2-pyridyl)-5,5-dimethyl-4,6-dihydropyrrolo[1,2-b]pyrazol-3-yl]-1H-pyrazolo[3,4-b]pyridine]
3	1	Cc1cc(-c2c(-c3ccc(F)cc3)nn3c2CC(C)(C)C3)c2cn[nH]c2n1 [Example 232, 4-[2-(4-Fluorophenyl)-5,5-dimethyl-4,6-dihydropyrrolo[1,2-b]pyrazol-3-yl]-6-methyl-1H-pyrazolo[3,4-b]pyridine]
118	17	CC1(C(F)(F)F)Cn2nc(-c3ccc(F)cc3)c(-c3ccnc4[nH]ncc34)c2CO1 (single isomer, unassigned) [Example 416, (*R)-2-(4-Fluorophenyl)-6-methyl-3-(1H-pyrazolo[3,4-b]pyridin-4-yl)-6-(trifluoromethyl)-6,7-dihydro-4H-pyrazolo[5,1-c][1,4]oxazine]
275	9	Cc1cc(-c2c(-c3ccc(F)cn3)nn3c2CO[C@@H](C)C3)c2cn[nH]c2n1 (single isomer, unassigned) [Example 89]
2260	235	[2H]C([2H])([2H])[C@]1(C(F)(F)F)Cn2nc(-c3ccc(F)cn3)c(-c3ccnc4[nH]nc(C)c34)c2CO1 (single isomer, unassigned) [Example 425, (*R)-2-(5-Fluoropyridin-2-yl)-6-(methyl-d3)-3-(3-methyl-1H-pyrazolo[3,4-b]pyridin-4-yl)-6-(trifluoromethyl)-6,7-dihydro-4H-pyrazolo[5,1-c][1,4]oxazine]
4	1	Fc1ccc(-c2nn3c(c2-c2ccnc4[nH]ncc24)OCC2(C3)CC2(F)F)nc1 (single isomer, unassigned) [Example 478, (*S)-2,2-Difluoro-2′-(5-fluoropyridin-2-yl)-3′-1H-pyrazolo[3,4-b]pyridin-4-yl)-5′H,7′H-spiro[cyclopropane-1,6′-pyrazolo[5,1-b][1,3]oxazine]]
303	20	COCC1(F)CCc2c(-c3cc(C)nc4[nH]ccc34)c(-c3ccc(F)cn3)nn2C1 (single isomer, unassigned) [Example 299, (*R)-4-[6-Fluoro-2-(5-fluoro-2-pyridyl)-6-(methoxymethyl)-5,7-dihydro-4H-pyrazolo[1,5-a]pyridin-3-yl]-6-methyl-1H-pyrrolo[2,3-b]pyridine]
3240	32	O=C1OCCn2nc(-c3ccc(F)cc3)c(-c3ccnc4[nH]ncc34)c21 [Example 181, 2-(4-Fluorophenyl)-3-(1H-pyrazolo[3,4-b]pyridin-4-yl)-6,7-dihydropyrazolo[5,1-c][1,4]oxazin-4-one]
40	8	Cc1nc2[nH]ncc2c(-c2c(-c3ccc(F)cn3)nn3c2CC[C@H]2[C@@H]3C2(F)F)c1F (single isomer, unassigned) [Example 357, (5a*S,6a*R)-6,6-Difluoro-3-(5-fluoro-6-methyl-1H-pyrazolo[3,4-b]pyridin-4-yl)-2-(5-fluoropyridin-2-yl)-5,5a,6,6a-tetrahydro-4H-cyclopropa[e]pyrazolo[1,5-a]pyridine]
1410	92	[2H]C([2H])([2H])OC[C@@]1(F)CCc2c(-c3cc(C)nc4[nH]ncc34)c(-c3ccc(F)cn3)nn2C1 (single isomer, unassigned) [Example 311, (*R)-4-(6-Fluoro-2-(5-fluoropyridin-2-yl)-6-((methoxy-d3)methyl)-4,5,6,7-tetrahydropyrazolo[1,5-a]pyridin-3-yl)-6-methyl-1H-pyrazolo[3,4-b]pyridine]
12	1	C[C@H]1CCc2c(-c3ccnc4[nH]ncc34)c(-c3ccc(F)cc3)nn21 [Example 15, 4-[(6S)-2-(4-Fluorophenyl)-6-methyl-5,6-dihydro-4H-pyrrolo[1,2-b]pyrazol-3-yl]-1H-pyrazolo[3,4-b]pyridine]
163	23	Fc1ccc(-c2nn3c(c2-c2c(F)cnc4[nH]ncc24)CC[C@@]2(C3)CC2(F)F)nc1 (single isomer, unassigned) [Example 329, (*S)-2,2-Difluoro-3′-(5-fluoro-1H-pyrazolo[3,4-b]pyridin-4-yl)-2′-(5-fluoropyridin-2-yl)-4′,5′-dihydro-7′H-spiro[cyclopropane-1,6′-pyrazolo[1,5-a]pyridine]]
8	1	Cc1cc(-c2c(-c3ccc(F)cc3)nn3c2[C@H]2CC[C@@H]3C2)c2cn[nH]c2n1 (single isomer, unassigned) [Example 365, (4*S,7*R)-2-(4-Fluorophenyl)-3-(6-methyl-1H-pyrazolo[3,4-b]pyridin-4-yl)-4,5,6,7-tetrahydro-4,7-methanopyrazolo[1,5-a]pyridine]
20	2	Cc1nc2[nH]ncc2c(-c2c(-c3ccc(F)cn3)nn3c2OCC2(CC2)C3)c1F [Example 463, 3′-(5-Fluoro-6-methyl-1H-pyrazolo[3,4-b]pyridin-4-yl)-2′-(5-fluoropyridin-2-yl)-5′H,7′H-spiro[cyclopropane-1,6′-pyrazolo[5,1-b][1,3]oxazine]]
95	5	[2H]C([2H])([2H])C1(C([2H])([2H])[2H])Cn2nc(-c3ccc(F)cn3)c(-c3c(F)cnc4[nH]ncc34)c2CO1 [Example 399, 3-(5-Fluoro-1H-pyrazolo[3,4-b]pyridin-4-yl)-2-(5-fluoropyridin-2-yl)-6,6-bis(methyl-d3)-6,7-dihydro-4H-pyrazolo[5,1-c][1,4]oxazine]
68	5	CC1(CF)CCc2c(-c3ccnc(N)c3)c(-c3ccc(F)cn3)nn2C1 (single isomer, unassigned) [Example 287, (*R)-4-[6-(Fluoromethyl)-2-(5-fluoro-2-pyridyl)-6-methyl-5,7-dihydro-4H-pyrazolo[1,5-a]pyridin-3-yl]pyridin-2-amine]
5	2	CCC(=O)Nc1cc(-c2c(-c3ccc(F)cn3)nn3c2OCC(C)(C)C3)ccn1 [Example 447, N-(4-(2-(5-Fluoropyridin-2-yl)-6,6-dimethyl-6,7-dihydro-5H-pyrazolo[5,1-b][1,3]oxazin-3-yl)pyridin-2-yl)propionamide]
7	1	CC1(C)Cn2nc(-c3ccc(F)cn3)c(-c3ccnc(NC(=O)C4CC4)c3)c2CO1 [Example 134, N-(4-(2-(5-Fluoropyridin-2-yl)-6,6-dimethyl-6,7-dihydro-4H-pyrazolo[5,1-c][1,4]oxazin-3-yl)pyridin-2-yl)cyclopropanecarboxamide]

Compound	IC50 (human CSNK1D) [nM]	IC50 [1] [nM]
Fc1ccc(-c2nn3c(c2-c2ccnc4[nH]ncc24)CCCC3)nc1 [Example 35, 4-[2-(5-Fluoro-2-pyridyl)-4,5,6,7-tetrahydropyrazolo[1,5-a]pyridin-3-yl]-1H-pyrazolo[3,4-b]pyridine]	374	11
